From patent US9718828B2 (MERCK SHARP & DOHME CORP., priority 2011, dated 2017) come the findings set out here.

The term pIC50 denotes the negative decadic logarithm of the IC50, by convention in mol/L.

pIC50: −log10 of the molar value. Counter-ions that a name gives are not always drawn.

T1 sequence (Q06187 whole entry): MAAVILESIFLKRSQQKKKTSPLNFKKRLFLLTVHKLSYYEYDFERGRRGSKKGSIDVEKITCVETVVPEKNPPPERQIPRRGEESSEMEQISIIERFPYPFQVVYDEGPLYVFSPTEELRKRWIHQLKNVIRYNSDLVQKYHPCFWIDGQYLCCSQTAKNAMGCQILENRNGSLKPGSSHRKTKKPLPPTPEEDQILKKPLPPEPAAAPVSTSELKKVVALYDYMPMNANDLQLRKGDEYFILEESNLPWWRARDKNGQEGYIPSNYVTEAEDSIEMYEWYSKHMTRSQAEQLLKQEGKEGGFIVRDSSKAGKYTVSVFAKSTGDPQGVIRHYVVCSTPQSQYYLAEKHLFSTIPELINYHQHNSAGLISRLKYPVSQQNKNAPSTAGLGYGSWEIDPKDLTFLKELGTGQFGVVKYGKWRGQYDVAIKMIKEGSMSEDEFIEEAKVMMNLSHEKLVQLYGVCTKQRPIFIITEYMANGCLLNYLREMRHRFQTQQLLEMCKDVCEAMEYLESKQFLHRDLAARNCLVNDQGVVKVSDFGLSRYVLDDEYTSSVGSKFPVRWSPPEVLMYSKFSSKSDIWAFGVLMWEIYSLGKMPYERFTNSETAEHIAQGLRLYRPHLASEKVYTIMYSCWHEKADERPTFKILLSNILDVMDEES

The first experiment concerns the target T1, hBTK (full-length BTK, 6HIS-tag cleaved) (Homo sapiens (Human), UniProt Q06187). In words: BTK enzymatic activity, LANCE TR-FRET assay (Assay Method C). Format: biochemical. To be noted: LANCE TR-FRET, 50 pM hBTK, 25 μM ATP; class 100-1000 is given as ≧100 nM-<1 μM; read-out: IC50 Btk activity values - Assay Method C. For orientation: In TR-FRET formats the signal depends on donor and acceptor labels being close together.
As to `Nc1ncnc2c1c(-c1ccc(C(=O)Nc3cc(C(F)(F)F)ccn3)cc1)nn2[C@H]1CCCc2nn(CCO)cc21` [Example 564, 4-{4-amino-1-[(4S)-2-(2-hydroxyethyl)-4,5,6,7-tetrahydro-2H-indazol-4-yl]-1H-pyrazolo[3,4-d]pyrimidin-3-yl}-N-[4-(trifluoromethyl)pyridin-2-yl]benzamide, TFA salt], the pIC50 is more than 8.00.
For the compound `CCN1CCC(c2nc(-c3ccc(C(=O)Nc4cc(C(F)(F)F)ccn4)cc3)c3c(N)nccn23)CC1=O` (centres unmarked) [Example 573, 4-[8-amino-3-(1-ethyl-2-oxopiperidin-4-yl)imidazo[1,5-a]pyrazin-1-yl]-N-[4-(trifluoromethyl)-pyridin-2-yl]benzamide, TFA salt], the pIC50 was 7.00 to 8.00.
`COCC(=O)N1CCC[C@@H](c2nc(-c3ccc(C(=O)Nc4cc(C(F)(F)F)ccn4)cc3F)c3c(N)nccn23)C1` [Example 575, 4-{8-amino-3-[(3R)-1-(methoxyacetyl)piperidin-3-yl]imidazo[1,5-a]pyrazin-1-yl}-3-fluoro-N-[4-(trifluoromethyl)pyridin-2-yl]benzamide, TFA salt]: the pIC50 is more than 8.00.
In the case of `COCCC(=O)N1CCC[C@@H](c2nc(-c3ccc(C(=O)Nc4cc(C(F)(F)F)ccn4)cc3F)c3c(N)nccn23)C1` [Example 576, 4-{8-amino-3-[(3R)-1-(3-methoxypropanoyl)piperidin-3-yl]imidazo[1,5-a]pyrazin-1-yl}-3-fluoro-N-[4-(trifluoromethyl)pyridin-2-yl]benzamide, TFA salt], the pIC50 is more than 8.00.

The target of the next experiment is T1, hBTK (full-length BTK, 6HIS-tag cleaved). Kind of experiment: BTK enzymatic activity, IMAP-FP assay (Assay Method B).
Conditions: not given
Format: biochemical. How it is done:
BTK enzymatic activity was determined in an IMAP-FP assay (Immobilized Metal ion Affinity-based fluorescence Polarization; Molecular Devices). […] Phosphorylation reactions were allowed to proceed for 120 minutes and were immediately quenched by the addition of 40 μL IMAP detection beads resuspended in IMAP progressive binding buffer (beads were diluted 1:600 in 75% and 25% progressive binding buffer A and B, respectively; Molecular Devices). Plates were read on Packard microplate reader after 60 minutes binding equilibration using Fluorescence Polarization protocol.
Compound `CCc1ccnc(NC(=O)c2ccc(-c3cn([C@@H]4CCCN(C(=O)C5(C)COC5)C4)c4ncnc(N)c34)cc2)c1` [Example 391, 4-(4-amino-7-{(3R)-1-[(3-methyloxetan-3-yl)carbonyl]piperidin-3-yl}-7H-pyrrolo[2,3-d]pyrimidin-5-yl)-N-(4-ethylpyridin-2-yl)benzamide] gave a pIC50 of 7.00 to 8.00.

Still in this experiment, the particulars now being: IMAP-FP, 1.05 nM hBTK, 5 μM ATP; class 100-1000 is given as ≧100 nM-<1 μM; read-out: IC50 Btk activity values - Assay Method B.
Turning to `CC1(C(=O)N2C[C@H](c3nc(-c4ccc(C(=O)Nc5cc(C(F)(F)F)ccn5)cc4)c4c(N)nccn34)CC(F)(F)C2)COC1` (stereo in doubt) [Example 376, 4-(8-amino-3-{5,5-difluoro-1-[(3-methyloxetan-3-yl)carbonyl]piperidin-3-yl}imidazo[1,5-a]pyrazin-1-yl)-N-[4-(trifluoromethyl)pyridin-2-yl]benzamide], the pIC50 is more than 8.00.
As to `C[C@H]1CC[C@@H](c2nc(-c3ccc(C(=O)Nc4ccccn4)cc3)c3c(N)nccn23)CN1C(=O)C1CC1` (stereo in doubt) [Example 394, 4-{8-amino-3-[(3R,6S)-1-(cyclopropylcarbonyl)-6-methylpiperidin-3-yl]imidazo[1,5-a]pyrazin-1-yl}-N-pyridin-2-ylbenzamide], the pIC50 is more than 8.00.
As for `C[C@H]1C[C@@H](c2nc(-c3ccc(C(=O)Nc4cc(C(F)(F)F)ccn4)cc3)c3c(N)nccn23)CN(C(=O)C2(C)COC2)C1` [Example 374, 4-(8-amino-3-{(3R,5S)-5-methyl-1-[(3-methyloxetan-3-yl)carbonyl]piperidin-3-yl}imidazo[1,5-a]pyrazin-1-yl)-N-[4-(trifluoromethyl)pyridin-2-yl]benzamide], the pIC50 is more than 8.00.
On the same count and under the same terms, the value for `C[C@@H]1C[C@@H](c2nc(-c3ccc(C(=O)Nc4cc(C(F)(F)F)ccn4)cc3)c3c(N)nccn23)CN(C(=O)C2(C)COC2)C1` [Example 375, 4-(8-amino-3-{(3R,5R)-5-methyl-1-[(3-methyloxetan-3-yl)carbonyl]piperidin-3-yl}imidazo[1,5-a]pyrazin-1-yl)-N-[4-(trifluoromethyl)pyridin-2-yl]benzamide] was 7.00 to 8.00; that for `C[C@@H]1CCN(C(=O)C2(C)COC2)C[C@@H]1c1nc(-c2ccc(C(=O)Nc3cc(C(F)(F)F)ccn3)cc2)c2c(N)nccn12` [Example 377, 4-(8-amino-3-{(3R,4R)-4-methyl-1-[(3-methyloxetan-3-yl)carbonyl]piperidin-3-yl}imidazo[1,5-a]pyrazin-1-yl)-N-[4-(trifluoromethyl)pyridin-2-yl]benzamide] was 6.00 to 7.00; that for `C[C@H]1CCN(C(=O)C2(C)COC2)C[C@@H]1c1nc(-c2ccc(C(=O)Nc3cc(C(F)(F)F)ccn3)cc2)c2c(N)nccn12` [Example 378, 4-(8-amino-3-{(3R,4S)-4-methyl-1-[(3-methyloxetan-3-yl)carbonyl]piperidin-3-yl}imidazo[1,5-a]pyrazin-1-yl)-N-[4-(trifluoromethyl)pyridin-2-yl]benzamide] was 7.00 to 8.00.
Regarding `C[C@@H]1[C@H](c2nc(-c3ccc(C(=O)Nc4cc(C(F)(F)F)ccn4)cc3)c3c(N)nccn23)CCCN1C(=O)C1(C)COC1` [Example 379, 4-(8-amino-3-{(2R,3R)-2-methyl-1-[(3-methyloxetan-3-yl)carbonyl]piperidin-3-yl}imidazo[1,5-a]pyrazin-1-yl)-N-[4-(trifluoromethyl)pyridin-2-yl]benzamide], the pIC50 was more than 8.00.
The same measure, in the same setting: the figure for `C[C@H]1[C@H](c2nc(-c3ccc(C(=O)Nc4cc(C(F)(F)F)ccn4)cc3)c3c(N)nccn23)CCCN1C(=O)C1(C)COC1` [Example 380, 4-(8-amino-3-{(2S,3R)-2-methyl-1-[(3-methyloxetan-3-yl)carbonyl]piperidin-3-yl}imidazo[1,5-a]pyrazin-1-yl)-N-[4-(trifluoromethyl)pyridin-2-yl]benzamide] is 7.00 to 8.00.
As for `CC1(C(=O)N2CCC[C@@H](n3cc(-c4ccc(C(=O)Nc5cc(C(F)(F)F)ccn5)cc4)c4c(N)ncnc43)C2)COC1` [Example 389, 4-(4-amino-7-{(3R)-1-[(3-methyloxetan-3-yl)carbonyl]piperidin-3-yl}-7H-pyrrolo[2,3-d]pyrimidin-5-yl)-N-[4-(trifluoromethyl)pyridin-2-yl]benzamide], the pIC50 was more than 8.00.
Consider `CC1(C(=O)N2CCC[C@@H](n3cc(-c4ccc(C(=O)Nc5cc(C#N)ccn5)cc4)c4c(N)ncnc43)C2)COC1` [Example 390, 4-(4-amino-7-{(3R)-1-[(3-methyloxetan-3-yl)carbonyl]piperidin-3-yl}-7H-pyrrolo[2,3-d]pyrimidin-5-yl)-N-(4-cyanopyridin-2-yl)benzamide], for which the pIC50 was 7.00 to 8.00.
Still for that read-out and setting: the figure for `COc1cc(C(=O)Nc2cc(C(F)(F)F)ccn2)ccc1-c1nc([C@@H]2CC[C@H](C)N(C(=O)C3(C)COC3)C2)n2ccnc(N)c12` [Example 401, 4-(8-amino-3-{(3R,6S)-6-methyl-1-[(3-methyloxetan-3-yl)carbonyl]piperidin-3-yl}imidazo[1,5-a]pyrazin-1-yl)-3-methoxy-N-[4-(trifluoromethyl)pyridin-2-yl]benzamide] is more than 8.00; for `Cc1ccnc(NC(=O)c2ccc(-c3nc([C@@H]4CC[C@H](C)N(C(=O)C5(C)COC5)C4)n4ccnc(N)c34)cc2)c1` [Example 402, 4-(8-amino-3-{(3R,6S)-6-methyl-1-[(3-methyloxetan-3-yl)carbonyl]piperidin-3-yl}imidazo[1,5-a]pyrazin-1-yl)-N-(4-methylpyridin-2-yl)benzamide] it is more than 8.00.
Still for that read-out and setting: the figure for `COc1ccnc(NC(=O)c2ccc(-c3nc([C@@H]4CC[C@H](C)N(C(=O)C5(C)COC5)C4)n4ccnc(N)c34)cc2)c1` [Example 403, 4-(8-amino-3-{(3R,6S)-6-methyl-1-[(3-methyloxetan-3-yl)carbonyl]piperidin-3-yl}imidazo[1,5-a]pyrazin-1-yl)-N-(4-methoxypyridin-2-yl)benzamide] is more than 8.00; for `CCOc1ccnc(NC(=O)c2ccc(-c3nc([C@@H]4CC[C@H](C)N(C(=O)C5(C)COC5)C4)n4ccnc(N)c34)cc2)c1` [Example 404, 4-(8-amino-3-{(3R,6S)-6-methyl-1-[(3-methyloxetan-3-yl)carbonyl]piperidin-3-yl}imidazo[1,5-a]pyrazin-1-yl)-N-(4-ethoxypyridin-2-yl)benzamide] it is more than 8.00; for `C[C@@H]1CC[C@@H](c2nc(-c3ccc(C(=O)Nc4cc(C(F)(F)F)ccn4)cc3)c3c(N)nccn23)CN1C(=O)C1(C)COC1` [Example 405, 4-(8-amino-3-{(3R,6R)-6-methyl-1-[(3-methyloxetan-3-yl)carbonyl]piperidin-3-yl}imidazo[1,5-a]pyrazin-1-yl)-N-[4-(trifluoromethyl)pyridin-2-yl]benzamide] it is 6.00 to 7.00.
As for `CCN1C[C@@H](c2nc(-c3ccc(C(=O)Nc4cc(C(F)(F)F)ccn4)cc3)c3c(N)nccn23)CC[C@@H]1C(F)(F)F` [Example 406, 4-{8-amino-3-[(3S,6R)-1-ethyl-6-(trifluoromethyl)piperidin-3-yl]imidazo[1,5-a]pyrazin-1-yl}-N-[4-(trifluoromethyl)pyridin-2-yl]benzamide], the pIC50 was 7.00 to 8.00.
For `C[C@H]1CC[C@H](c2nc(-c3ccc(C(=O)Nc4cc(C(F)(F)F)ccn4)cc3)c3c(N)nccn23)CN1C(=O)C1(C)COC1` [Example 407, 4-(8-amino-3-{(3S,6S)-6-methyl-1-[(3-methyloxetan-3-yl)carbonyl]piperidin-3-yl}imidazo[1,5-a]pyrazin-1-yl)-N-[4-(trifluoromethyl)pyridin-2-yl]benzamide], the pIC50 was 7.00 to 8.00.
On to `Nc1ncc(F)n2c([C@@H]3CCCN(C(=O)C4CC4)C3)nc(-c3ccc(C(=O)Nc4cc(C(F)(F)F)ccn4)cc3)c12` [Example 463, 4-{8-amino-3-[(3R)-1-(cyclopropylcarbonyl)piperidin-3-yl]-5-fluoroimidazo[1,5-a]pyrazin-1-yl}-N-[4-(trifluoromethyl)pyridin-2-yl]benzamide], for which the pIC50 was more than 8.00.
